Here are results for 2 molecules from patent US20230151434A1, “REAWAKENING OF DORMANT TUMOR CELLS BY MODIFIED LIPIDS DERIVED FROM STRESS ACTIVATED NEUTROPHILS” (The Wistar Institute of Anatomy and Biology, priority 2020, published 2023).

For one experiment, the system named is PMN. Nature of the experiment: S100A8/A9 release by PMN measured by ELISA. The conditions noted are these: PMN treated with NE with or without ICI-118,551. The experiment is classed as cell-based, mouse. The protocol:
PMN or PMN-MDSC were isolated from spleen of tumor-free mice or LLC tumor-bearing mice, respectively. A total of 5×10^5 LLC cells were injected into the right flank of mice, and spleens were harvested when tumors reached 200 mm^2. Spleens were mechanically dissociated. Red blood cells were lysed with ACK buffer cells. Splenocytes were stained with mouse biotin-conjugated Ly6G antibody (Miltenyi Biotec) followed by biotin microbeads. Ly6G+ cells were purified by magnetic separation with MACS column for magnetic cell isolation, according to the manufacturer's instructions (Miltenyi Biotec).
One hundred microliters of mouse peripheral blood was collected from facial vein. NE was measured by a mouse NE ELISA Kit (Novus Biologicals). S100A8/A9 was measured by Mouse S100A8/S100A9 Heterodimer DuoSet ELISA (R&D Systems). S100A8/A9 concentrations in human serum samples were determined by using a double-sandwich ELISA system as previously described (64), which is different from commercial ELISA kits. Human NE was measured using an ELISA kit (Abnova).
On the technique in general: In an ELISA, binding on a coated surface is turned into a signal by an enzyme label.

For the next experiment, the system named is PMN and PMN-MDSC. Kind of experiment: NET detection. The experiment is classed as cell-based, mouse. How it is done:
PMN were cultured for 8 hours in 24-well flat-bottom plates in RPMI 1640+10% FBS. PMN were then fixed with 4% paraformaldehyde (Electron Microscopy Sciences) followed by staining with SYTOX Green Nucleic Acid Stain (SYTOX) at a final concentration of 250 nM. A Nikon TE300 inverted microscope equipped with a motorized XY stage was used to image NETs by acquiring 25 random locations per well. The z-stacks per location were then combined into an extended depth focused image. The total NET area was calculated by segmenting each image using a defined threshold pixel intensity setting. The spot detection tool in NIS-Elements Advanced Research (Nikon) was used to count the number of cells per field. The sum of the total NET area in the 25 random fields of view was divided by the total number of cells in the 25 fields of view to obtain NET area (in […]) per cell.

On to `Cc1ccc(OCC(O)C(C)NC(C)C)c2c1CCC2` (centres unmarked) [ICI-118,551], for which the “NE-mediated secretion of S100A8/A9 by PMN” value in the experiment on PMN is recorded as “abrogated the NE-mediated secretion of S100A8/A9 by PMN”.

B1: S100A8/A9: recombinant S100A8/A9, heterocomplex of two S100 calcium binding proteins (calprotectin) (protein, UniProt P27005 2-89; P31725 2-113, looked up)
Protein S100-A8: PSELEKALSNLIDVYHNYSNIQGNHHALYKNDFKKMVTTECPQFVQNINIENLFRELDINSDNAINFEEFLAMVIKVGVASHKDSHKE
Protein S100-A9: ANKAPSQMERSITTIIDTFHQYSRKEGHPDTLSKKEFRQMVEAQLATFMKKEKRNEALINDIMEDLDTNQDNQLSFEECMMLMAKLIFACHEKLHENNPRGHGHSHGKGCGK
Regarding B1, in the experiment on PMN and PMN-MDSC, the “NET formation by PMN and PMN-MDSC” value is on record as “did not cause substantial up-regulation of NETs”.
